Measurements reported in paper PMC9837035 (Nature Communications, 2023).
Where “and” joins values, the source holds several entries; their conditions need not be identical. Identical values can stand only once.

Tests used:
[1] = test system: H3K9me2 at the β-globin locus; test: ChIP-qPCR with antibody against H3K9me2 in HUDEP-2 cells; type: cell-based, human; design: ChIP-qPCR using antibodies against H3K9me2 in HUDEP-2 cells: scale not given here; conditions: for ChIP-qPCR using antibodies against H3K9me2 in HUDEP-2 cells: experiments 1-3, a/b replicates
Description: A total of 0.5–1 × 10^6 cells were cross-linked with 1% formaldehyde for 10 min at room temperature and the reaction was quenched with 250 mM glycine. Cross-linked cells were then lysed with buffer 1 (15 mM Tris-HCl (pH 7.5), 60 mM KCl, 15 mM NaCl, 5 mM MgCl2, 0.1 mM EGTA, 300 mM sucrose, […], 1 mM phenylmethanesulfonyl fluoride (PMSF), 0.5% NP40) and incubated on ice for 10 min. After centrifugation, the pellet was re-suspended in buffer 2 (15 mM Tris-HCl (pH 7.5), 60 mM KCl, 15 mM NaCl, 5 mM MgCl2, 0.1 mM EGTA, 1.2 M sucrose, […], 1 mM PMSF). After centrifugation, the pellet was then re-suspended in MNase buffer (50 mM Tris-HCl (pH 7.5), 1 mM CaCl2, 4 mM MgCl2, 320 mM sucrose, 1 mM PMSF) and digested with 100 U of micrococcal nuclease (Takara) at 37 °C for 15 min. After the reaction was quenched with 20 mM EDTA, the supernatants were incubated with antibodies (anti-H3K9me2 (1:100), Abcam, ab1220; anti-H3K9ac (1:100), Active Motif, 39917; Goat anti-IgG (H + L) (1:100), Jackson Immunoresearch; anti-BCL11A (1:100), Novus Biologicals, NB600-261; anti-ZBTB7A (1:100), Thermo Fisher Scientific, eBioscience (13E9); anti-CHD3 (1:100), Novus Biologicals, NB-100-60412; anti-CHD4 (1:100), abcam, ab240640) and Protein A/G PLUS-Agarose (Santa Cruz Biotechnology) overnight at 4 °C. Beads were washed sequentially once with the following buffers: wash buffer A (50 mM Tris-HCl (pH 7.5), 75 mM NaCl, 10 mM EDTA, 0.01% NP40), wash buffer B (50 mM Tris-HCl (pH 7.5), 100 mM NaCl, 10 mM EDTA, 0.01% NP40), wash buffer C (50 mM Tris-HCl (pH 7.5), 175 mM NaCl, 10 mM EDTA, 0.01% NP40). After treatment with proteinase K in buffer 4 (20 mM Tris-HCl (pH 8.0), 10 mM EDTA, 400 mM NaCl, 0.5% SDS) at 56 °C overnight, DNA was purified using the FastGene Gel/PCR Extraction Kit (Nippon Genetics). The samples were analyzed by qPCR. Primers are listed in Supplementary Table 10. ChIP-seq experiments were performed by GENEWIZ. Tracks were visualized using the integrative genome viewer. ChIP-seq analysis were analyzed Cutadapt (V1.9.1) for QC, FastQC (V0.10.1) for QC assessment, Bowtie (V2.1.0) for mapping, strand cross-correlation (SCC) for ChIP quality assessment, MACS2 for peak calling, and R package ChIPpeakAnno for Peak annotated.

G9a = target: T1, G9a (Homo sapiens, UniProt Q96KQ7); test: biochemical
T1 sequence (Q96KQ7 1-1210): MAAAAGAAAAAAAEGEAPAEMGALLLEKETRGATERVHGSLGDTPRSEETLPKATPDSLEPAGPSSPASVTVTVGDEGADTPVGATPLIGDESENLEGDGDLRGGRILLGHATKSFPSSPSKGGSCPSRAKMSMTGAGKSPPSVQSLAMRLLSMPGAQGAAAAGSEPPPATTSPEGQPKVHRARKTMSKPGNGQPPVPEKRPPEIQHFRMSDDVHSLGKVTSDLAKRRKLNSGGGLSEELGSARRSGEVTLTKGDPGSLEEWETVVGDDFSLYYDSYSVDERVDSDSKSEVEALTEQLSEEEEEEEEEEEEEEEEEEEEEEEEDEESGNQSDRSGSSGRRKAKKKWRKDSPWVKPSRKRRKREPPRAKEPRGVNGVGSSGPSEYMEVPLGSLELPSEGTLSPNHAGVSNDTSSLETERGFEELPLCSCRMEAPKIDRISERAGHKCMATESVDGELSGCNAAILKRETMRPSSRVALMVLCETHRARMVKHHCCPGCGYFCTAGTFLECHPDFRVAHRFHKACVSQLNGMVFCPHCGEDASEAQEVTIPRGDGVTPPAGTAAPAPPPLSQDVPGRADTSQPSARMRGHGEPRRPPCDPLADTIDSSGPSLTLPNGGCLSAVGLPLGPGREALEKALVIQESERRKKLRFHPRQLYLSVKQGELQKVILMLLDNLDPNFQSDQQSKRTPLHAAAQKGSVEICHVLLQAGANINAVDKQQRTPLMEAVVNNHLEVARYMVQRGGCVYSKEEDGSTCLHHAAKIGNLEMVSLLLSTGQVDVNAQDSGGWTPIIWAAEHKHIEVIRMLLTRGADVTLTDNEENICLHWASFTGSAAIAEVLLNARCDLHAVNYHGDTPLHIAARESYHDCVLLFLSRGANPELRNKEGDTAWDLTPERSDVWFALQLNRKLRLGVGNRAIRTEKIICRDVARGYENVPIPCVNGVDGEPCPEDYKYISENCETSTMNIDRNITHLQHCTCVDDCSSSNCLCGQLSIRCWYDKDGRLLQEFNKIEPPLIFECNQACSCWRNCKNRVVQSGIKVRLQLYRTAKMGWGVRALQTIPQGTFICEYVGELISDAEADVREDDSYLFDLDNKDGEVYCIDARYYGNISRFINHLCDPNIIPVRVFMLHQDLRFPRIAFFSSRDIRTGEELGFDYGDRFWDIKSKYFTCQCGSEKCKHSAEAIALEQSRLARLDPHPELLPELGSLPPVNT

Compound | ChIP-qPCR using antibodies against H3K9me2 in HUDEP-2 cells ([1]; BGLT3 locus) | ChIP-qPCR using antibodies against H3K9me2 in HUDEP-2 cells ([1]; HS1) | ChIP-qPCR using antibodies against H3K9me2 in HUDEP-2 cells ([1]; HS2) | ChIP-qPCR using antibodies against H3K9me2 in HUDEP-2 cells ([1]; HS3) | ChIP-qPCR using antibodies against H3K9me2 in HUDEP-2 cells ([1]; HS4) | H3K9me2 levels at the β-globin gene locus ([1]; HUDEP-2, 200 μM, 4 days) | ChIP-qPCR using antibodies against H3K9me2 in HUDEP-2 cells ([1]; β-globin promoter) | ChIP-qPCR using antibodies against H3K9me2 in HUDEP-2 cells ([1]; γ-globin promoter) | ChIP-qPCR using antibodies against H3K9me2 in HUDEP-2 cells ([1]; δ-globin promoter) | IC50 (G9a)
NC(=O)NO [Hydroxyurea, hydroxyurea] | 0.3036 and 0.9734 and 0.09549 and 0.1907 and 0.4324 and 0.08257 | 0.1874 and 0.4067 and 0.1711 and 0.2985 and 0.4573 and 0.2803 | 0.813 and 0.5625 and 0.04813 and 0.5561 and 0.988 | 0.3829 and 1.033 and 0.3275 and 0.3135 and 0.5984 and 0.1213 | 0.2695 and 0.4846 and 0.05083 and 0.7217 and 0.09433 | did not alter H3K9me2 levels | 0.2611 and 0.4698 and 0.1317 and 0.1934 and 0.3991 and 0.1179 | 0.6385 and 1.7009 and 0.2449 and 0.8192 and 0.4081 | 0.1111 and 0.2374 and 0.06666 and 0.1168 and 0.2688 and 0.05187 | 
Cc1c(C(=O)NC(CCC2CC2)C(=O)Nc2ccc(C#N)cc2)[nH]c2c1C(=O)CC(C)(C)C2 (stereo not shown) [RK-701] |  |  |  |  |  |  |  |  |  | 21.8 nM and 23.9 nM
